The values below are quoted from earlier work in patent US20220339173A1, “ORAL COMPOSITION FOR IMPROVING MEMORY-LEARNING ABILITY” (priority 2019, published 2022).

The data set has as its system c-Fos activity.

In the case of phosphatidylserine, the “c-Fos activity in the hippocampus” value (hippocampus) is on record as “no changes”. The “c-Fos activity in the paraventricular nucleus” value (paraventricular nucleus) is “changes in c-Fos activity in the brain region are found”.
